*1 amine or outer side, *2 acyl side, *3 side chain or, on linkers, in order; H or OH if unused. Where a SMILES comes first, the peptide text is derived from it. Bridges are numbered along the chain shown (N, C = ends). [ ]: non-standard residue; d: D form. The star is where a group is joined. PipA(acetate-DOTA) = (3-(4-piperidinyl)-Ala)-(1,4,7,10-tetraazacyclododecane-1,4,7-triyl)triacetic acid, O=C(O)CN1CCN(CC(=O)O)CCN(CC(=O)N2CCC(C[C@H](N[*:1])C(=O)[*:2])CC2)CCN(CC(=O)O)CC1; DOTA = O=C(O)CN1CCN(CC(=O)O)CCN(CC(=O)*)CCN(CC(=O)O)CC1; 2Nal = N[C@@H](Cc1ccc2ccccc2c1)C(=O)O; NMetBuAla = CN[C@@H](CC(C)(C)C)C(=O)O; Tle = CC(C)(C)[C@H](N)C(=O)O; CH2 = C([*:1])[*:2]
T1: DLL3 (Homo sapiens, UniProt Q9NYJ7)
T1 sequence (Q9NYJ7 27-618): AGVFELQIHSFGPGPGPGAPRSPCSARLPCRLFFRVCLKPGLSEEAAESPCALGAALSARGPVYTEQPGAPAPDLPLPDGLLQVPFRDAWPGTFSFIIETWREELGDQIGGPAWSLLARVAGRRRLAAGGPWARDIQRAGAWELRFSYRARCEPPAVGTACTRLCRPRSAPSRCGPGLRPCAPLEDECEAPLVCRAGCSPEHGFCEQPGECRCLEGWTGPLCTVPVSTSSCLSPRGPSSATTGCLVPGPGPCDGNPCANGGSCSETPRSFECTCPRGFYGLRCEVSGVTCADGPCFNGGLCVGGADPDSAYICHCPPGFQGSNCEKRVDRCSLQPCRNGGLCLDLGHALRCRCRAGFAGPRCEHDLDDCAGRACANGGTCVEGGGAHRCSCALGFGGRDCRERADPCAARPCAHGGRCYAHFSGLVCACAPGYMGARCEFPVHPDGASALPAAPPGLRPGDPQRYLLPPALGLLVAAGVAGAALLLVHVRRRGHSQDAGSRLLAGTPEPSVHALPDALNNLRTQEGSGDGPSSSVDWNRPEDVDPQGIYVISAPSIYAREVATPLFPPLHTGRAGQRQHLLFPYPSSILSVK

T2: DLL3 on SHP-77 cells (human, UniProt Q9NYJ7 27-618)
T2 construct: SHP-77 cells are human-derived, non-engineered SCLC cells
T2 sequence: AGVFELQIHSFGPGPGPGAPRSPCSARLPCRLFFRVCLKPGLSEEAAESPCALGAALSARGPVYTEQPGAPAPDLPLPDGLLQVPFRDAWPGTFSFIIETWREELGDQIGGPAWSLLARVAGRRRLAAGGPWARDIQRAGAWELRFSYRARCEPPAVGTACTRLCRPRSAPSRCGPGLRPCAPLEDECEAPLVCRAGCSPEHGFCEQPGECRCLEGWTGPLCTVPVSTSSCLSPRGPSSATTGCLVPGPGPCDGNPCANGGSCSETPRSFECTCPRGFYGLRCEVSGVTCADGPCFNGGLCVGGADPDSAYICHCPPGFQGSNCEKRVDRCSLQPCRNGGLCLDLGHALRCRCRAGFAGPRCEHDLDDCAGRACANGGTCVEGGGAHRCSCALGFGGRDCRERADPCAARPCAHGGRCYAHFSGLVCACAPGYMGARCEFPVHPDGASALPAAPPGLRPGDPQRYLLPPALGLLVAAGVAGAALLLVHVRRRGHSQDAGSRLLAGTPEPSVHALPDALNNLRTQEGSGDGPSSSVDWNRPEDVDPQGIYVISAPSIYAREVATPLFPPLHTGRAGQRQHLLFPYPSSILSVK


Tests used:
[1] = test system: CT26.DLL3 cells; experiment: Cell binding (total uptake) of [177Lu]Lu-labeled peptide, CT26.DLL3 cells; type: cell-based; conditions: 1 h, 37° C.
In short: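 [177Lu]Lu-labelled peptide was prepared at pH ~5 and 80 °C, with purity checked by RP-HPLC, then formulated in 1% PBSA. CT26.DLL3 cells (5-25 million per condition) were incubated with 0.8 μCi for 1 h at 37 °C. After cold PBS/BSA washes, bound and unbound fractions were gamma-counted and uptake was reported as a percentage band.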

[2] = test system: SHP-77 cells; experiment: Cell binding (total uptake) of [177Lu]Lu-labeled peptide, SHP-77 cells; type: cell-based; conditions: 1 h, 37° C.
Description: (§1) [^177Lu]LuCl3 was received from venders in HCl solution. For every mCi of [^177Lu]LuCl3 added to the reaction vial (1.5 mL Eppendorf vial), ammonium acetate buffer (0.2 M, pH 4.9, 100 μL, containing 1% w/v ascorbic acid and 6% v/v ethanol) and peptide conjugate (1 nmol; also referred to herein as “chelator-peptides”) was added. The pH of the solution was determined to be approximately 5 by using pH strips. The reaction vial was incubated at 80° C., 700 RPM for 17-20 minutes. A sample from the reaction was analyzed by RP-HPLC using an Agilent Infinity II 1260 HPLC to determine reaction completion and radiochemical purity of [^177Lu]Lu-chelator-peptides. HPLC conditions: Waters XBridge BEH C18 Column, 130A, 3.5 μm, 4.6 mm×250 mm; mobile phase: Solvent A=water (with 0.1% formic acid), solvent B=acetonitrile (with 0.1% formic acid). Gradients: 25-45% B in 10 minutes, 45-65% B in 12 minutes, 65-90% in 6 minutes at a flow rate of 0.5 mL/minutes Required amounts of the product was formulated in 1% PBSA for cell studies.
(§2) The study was conducted using SHP-77, CT26.WT, CT26.DLL3, and HEK293.DLL3 cells (Table 9)
(§3) Adherent cell studies: The cells were cultured in appropriate culture media (20 mL) in tissue culture treated T150 flasks at 37° C. and 5% C02. Adherent cells were detached (60-70% confluent) using 5 mL Versene at 37° C. for 3 minutes. After confirming the viability using countess and count of detached cells using Trypan blue, the cells were centrifuged at 4° C. for 5 minutes (1,000 rpm). The cell pellet obtained was washed once with PBS and resuspended in 1% PBSA to obtain the desired cell concentration (5-25 million cells/mL).
as §3, with “Suspension” for “Adherent”, “CO2.” for “C02. Adherent cells were detached (60-70% confluent) using 5 mL Versene at 37° C. for 3 minutes.”, “viability” for “viability using countess”
(§4) Cell numbers used for the assay were in the range of 5 million cells/condition-25 million cells/condition.
Total uptake: Cells were incubated with 300 μL (0.8 μCi) of the incubation buffer (containing radiolabeled peptide [^177Lu]Lu-test peptide) for 1 hour at 37° C. (Table 10). Post incubation, the cells were pelleted and washed 2 times using cold PBS+1% BSA. The supernatant and washes were combined and counted together as “unbound fraction” in a gamma counter. The cells were then resuspended in 300 μL of 1% PBS+1% BSA and counted in the gamma counter as “bound fraction”.
(§5) In these Tables, “A” represents % s ≤25; “B” represents 25 <% ≤50; “C” represents % >50.

[3] = test system: CT26.DLL3 cells; experiment: Internalization of [177Lu]Lu-labeled peptide, CT26.DLL3 cells; type: cell-based; conditions: 1 h, 37° C.
In short: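 [177Lu]Lu-chelator-peptides labelled at pH ~5, 80 °C, checked by RP-HPLC, formulated in 1% PBSA. Detached cells (5-25 million/condition) counted as bound fraction, stripped twice with 50 mM glycine pH 2.5 for 3 min, lysed in 0.3 M NaOH and gamma-counted as internalized fraction; values binned as ≤25, 25-50, >50 %.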

[4] = target: T1, DLL3; experiment: SPR KD, biotinylated human DLL3 on streptavidin chip (Table 8); parameters: biotin (biotinylated); conditions: biotinylated human DLL3 on streptavidin sensor chip, 25° C., 1:1 binding model; read-out: SPR KD
Excerpt: Biotinylated target ligand human DLL3 was immobilized on a streptavidin sensor chip. A reference surface was set up for nonspecific binding and refractive index changes. […] Sensorgram curves were fitted with 1:1 binding model, and affinity and kinetic parameters were obtained using Biacore Insight evaluation 4.0. software.

[5] = test system: SHP-77 cells; experiment: Internalization of [177Lu]Lu-labeled peptide, SHP-77 cells; type: cell-based; conditions: 1 h, 37° C.
Description: as §1, §2, §3
as §3, with “Suspension” for “Adherent”, “CO2.” for “C02. Adherent cells were detached (60-70% confluent) using 5 mL Versene at 37° C. for 3 minutes.”, “viability” for “viability using countess”
as §4
Internalization: The resuspended cells in 300 μL of 1% PBSA and counted in the gamma counter as “bound fraction” were collected in 1.5 mL Eppendorf tube and pelleted. The pelleted cells were incubated with 300 μL of 50 mM Glycine pH=2.5 for 3 minutes and then pelleted discarding the supernatant. This process was repeated one more time. The pelleted cells were washed with 300 μL of cold 1% PBSA and then resuspended in 300 μl 0.3M NaOH. This was counted in the gamma counter as “internalized fraction”.
as §5

[6] = test system: nude mice bearing SHP-77 tumors; experiment: Ex vivo biodistribution of radiolabeled peptides (% IA/g) in nude mice bearing SHP-77 tumors; conditions: [177Lu]Lu labelling, 24 hours post-injection, intravenous
In short: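 [177Lu]Lu-peptides were given as an IV tail-vein bolus once tumors reached 200-400 mm^3. Injected activity was set per mouse from syringe dose-calibrator readings. At set time points, tissues were weighed and gamma-counted, and counts were decay-corrected to injection and expressed as % IA/g.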

[7] = target: T2, DLL3 on SHP-77 cells; experiment: [177Lu]Lu-labelled peptide on SHP-77 cells, 1 h 37 C, gamma counter; C = %>50

Kd [4] [nM]	kidney uptake (% IA/g) [6]	% Binding [7] [%]	Molecule	% Binding [1]	% Binding [2]	% Internalization (out of bound fraction) [3]	% Internalization (out of bound fraction) [5]	tumor uptake (% IA/g) [6]
< 1	C (“C” represents 0 < % IA/g ≤ 10 in)	–	CC[C@H](C)[C@H](NC(=O)[C@@H](NC(=O)[C@H](Cc1c[nH]c2ccccc12)NC(C)=O)[C@@H](C)O)C(=O)N[C@H]1CSSC[C@@H](C(=O)N[C@@H](Cc2c[nH]c3ccccc23)C(=O)N2CCC[C@H]2C(N)=O)NC(=O)[C@H](CC(=O)O)NC(=O)[C@H](Cc2cnc[nH]2)NC(=O)[C@H](Cc2ccc3ccccc3c2)NC(=O)[C@H](CC(N)=O)NC(=O)[C@H](CCCCNC(=O)CN2CCN(CC(=O)O)CCN(CC(=O)O)CCN(CC(=O)O)CC2)NC1=O [compound 249, Ac-W-T-I-C(3)-Lys(DOTA)-N-(2Nal)-H-D-C(3)-W-P-CONH2] (Ac-WTICK(DOTA)N[2Nal]HDCWP-NH2; disulfide 4-10)	A (% s ≤25)	A (% s ≤25)	B (25 <% ≤50)	B (25 <% ≤50)	A (“A” represents 0 < % IA/g ≤ 5 in tumor)
< 1	C (“C” represents 0 < % IA/g ≤ 10 in)	–	CC(=O)N[C@@H](Cc1c[nH]c2ccccc12)C(=O)N[C@H](C(=O)N[C@H](C(=O)N[C@H]1CSSC[C@@H](C(=O)N[C@@H](Cc2c[nH]c3ccccc23)C(=O)N2CCC[C@H]2C(N)=O)NC(=O)[C@H](CC(=O)O)NC(=O)[C@H](CCCCNC(=O)CN2CCN(CC(=O)O)CCN(CC(=O)O)CCN(CC(=O)O)CC2)NC(=O)[C@H](Cc2ccc3ccccc3c2)NC(=O)[C@H](CC(N)=O)NC(=O)[C@H](CC(N)=O)NC1=O)C(C)(C)C)[C@@H](C)O [compound 315, Ac-W-T-(Tbg)-C(3)-N-N-(2Nal)-Lys(DOTA)-D-C(3)-W-P-CONH2] (Ac-WT[Tle]CNN[2Nal]K(DOTA)DCWP-NH2; disulfide 4-10)	A (% s ≤25)	B (25 <% ≤50)	C (% >50)	B (25 <% ≤50)	A (“A” represents 0 < % IA/g ≤ 5 in tumor)
–	–	> 50	Ac-WT[NMetBuAla]C[PipA(acetate-DOTA)]N[2Nal]K(DOTA)DCWP-NH2 (linker 4-10 via CH2) [Cpd No. 449]	–	–	–	–	–

Source: US20250049970A1, “DLL3 TARGETING PEPTIDES AND CONSTRUCTS THEREOF” (MARIANA ONCOLOGY INC., priority 2023, published 2025)
